Experimental data from patent US20240293387A1, “Methods of Treating Fabry Disease in Pediatric Patients” (Amicus Therapeutics, Inc., priority 2021, published 2024).

Tests used:
[1] = system: pediatric subjects with Fabry disease and amenable GLA variants; assay: AT1001-020 Stage 1 safety in pediatric subjects (interim analysis)
Experimental: All safety analyses were performed using the safety population.
During Stage 1, urinalysis (albumin, protein, specific gravity, pH, and microscopy) was the only laboratory parameter collected at Month 1 and therefore, the only laboratory parameter assessed for the Interim Analysis.

[2] = Population PK (popPK) model of migalastat in adults (NONMEM, bootstrap); parameters: species or system human; conditions: for Typical V2/F, Estimate (% RSE): Fabry disease; for Typical V2/F, Estimate (% RSE) / Typical Q/F, Estimate (% RSE) / Typical V3/F, Estimate (% RSE): body weight ≥ 70 kg
Experimental: A population pharmacokinetics (popPK) model previously developed from healthy adult volunteers and adult patients with Fabry disease after oral migalastat administration. After pooling plasma concentration-time data from Phase I, II, and III studies of AT1001 administered orally in adults using a range of doses from 25 mg to 675 mg and regimens under fasting conditions. […] In contrast, other covariates such as sex, age, drug formulation (solution or suspension vs 25 mg capsule vs 150 mg capsule) were not statistically/clinically significant. Since renal function gradually increases from birth and reaches adult levels by the second year of life (Rubin 1949), there are no expected age-dependent changes in eGFR in the pediatric population 2 years and older than adults. Additionally, pediatric patients with Fabry disease usually have a normal renal function or may experience renal hyperfiltration (Hopkin 2008); therefore, weight-based dosing regimens, assuming that pediatrics have a normal renal function, were planned for the simulations in pediatric Fabry patients. NONMEM program was used to develop the population PK model of migalastat in adults using first-order conditional estimation with interaction (FOCE-I). Simulations were conducted using NONMEM to obtain plasma concentration-time; all graphical analyses were performed using R; noncompartmental analysis and pharmacokinetic parameters summaries were conducted using Phoenix WinNonlin. Bootstrapping and visual predictive checks (VPC)s were conducted using Perl-speaks-NONMEM (PsN) R packages of popED and mrgsolve were used in the optimal sampling strategy. […] The overall purpose of the model development was to come up with a model for pediatric extrapolation. […] Moreover, pediatric CLT/F values extrapolated from the non-renal model were higher than the overall CLT/F approach, resulting in higher pediatric doses for achieving equivalent exposures with adults which was a less conservative approach. Therefore, the overall CLT/F scaling approach is more conservative and was chosen for the final model, which is shown in Table 6. The estimated parameters from bootstrap (see Table 6) were nearly identical to those estimated from the original dataset. All parameters were estimated with adequate precision.

[3] = Safety Population (N = 9), Stage 1

OC[C@H]1NC[C@H](O)[C@@H](O)[C@H]1O [migalastat, (2R,3S,4R,5S)-2-(hydroxymethyl) piperdine-3,4,5-triol]
Subjects with urine pH from normal at baseline to high at Month 1 ([1]; Safety Population (N = 9)): Three
Number of subjects discontinued due to TEAEs [1, 3]: 0 n (%)
Number of subjects with AEs leading to death [1, 3]: 0 n (%)
Number of subjects with TEAEs [1, 3]: 5 (55.6) n (%)
Number of subjects with related TEAEs [1, 3]: 1 (11.1) n (%)
Number of subjects with treatment-emergent SAEs [1, 3]: 0 n (%)
Number of TEAEs ([1]; Safety Population (N = 9), Stage 1, 123 mg capsule QOD): 6 n
Drug eruption, Number of Events ([1]; Safety Population, Stage 1): 1 (16.7) n (%)
Drug eruption, Number of Subjects ([1]; Safety Population, Stage 1): 1 (11.1) n (%)
Headache, Number of Events ([1]; Safety Population, Stage 1): 1 (16.7) n (%)
Headache, Number of Subjects ([1]; Safety Population, Stage 1): 1 (11.1) n (%)
Infections and infestations, Number of Events ([1]; Safety Population, Stage 1): 4 (66.7) n (%)
Infections and infestations, Number of Subjects ([1]; Safety Population, Stage 1): 4 (44.4) n (%)
Nervous system disorders, Number of Events ([1]; Safety Population, Stage 1): 1 (16.7) n (%)
Nervous system disorders, Number of Subjects ([1]; Safety Population, Stage 1): 1 (11.1) n (%)
Pharyngitis, Number of Events ([1]; Safety Population, Stage 1): 1 (16.7) n (%)
Pharyngitis, Number of Subjects ([1]; Safety Population, Stage 1): 1 (11.1) n (%)
Skin and subcutaneous tissue disorders, Number of Events ([1]; Safety Population, Stage 1): 1 (16.7) n (%)
Skin and subcutaneous tissue disorders, Number of Subjects ([1]; Safety Population, Stage 1): 1 (11.1) n (%)
Upper respiratory tract infection, Number of Events ([1]; Safety Population, Stage 1): 3 (50.0) n (%)
Upper respiratory tract infection, Number of Subjects ([1]; Safety Population, Stage 1): 3 (33.3) n (%)
Potentially clinically significant abnormalities in urinalysis parameters ([1]; Stage 1): no potentially clinically significant abnormalities
New safety findings ([1]; Stage 1, 123 mg, pediatric patients aged ≥12 to 16 years): No new safety findings
EGFR-related exponential index on CL/F, Estimate (% RSE) ([2]; Bootstrap): 0.925 (5.25%);
Fractional Change in V2/F in subjects without Fabry disease (decrease in V2/F), Estimate (% RSE) ([2]; Bootstrap): −0.305 (12.3%);
Fractional Change in total CL/F in subjects without Fabry disease (decrease in total CL/F), Estimate (% RSE) ([2]; Bootstrap): −0.151 (23.5%);
Ka (intercept), Estimate (% RSE) ([2]; Bootstrap): 0.256 (8.60%); h^−1
Ka (slope), Estimate (% RSE) ([2]; Bootstrap): 0.282 (7.45%);
Lag time, Estimate (% RSE) ([2]; Bootstrap): 0.176 (4.52%); h
Typical V2/F, Estimate (% RSE) ([2]; Bootstrap): 69.7 (4.8%); L
Typical Q/F, Estimate (% RSE) ([2]; Bootstrap): 1.01 (4.59%); L/h
Typical V3/F, Estimate (% RSE) ([2]; Bootstrap): 27.5 (11.9%); L
EGFR-related exponential index on CL/F, Estimate (% RSE) ([2]; NONMEM): 0.922 (5.64%);
Fractional Change in V2/F in subjects without Fabry disease (decrease in V2/F), Estimate (% RSE) ([2]; NONMEM): −0.306 (12.8%);
Fractional Change in total CL/F in subjects without Fabry disease (decrease in total CL/F), Estimate (% RSE) ([2]; NONMEM): 0.150 (24.9%);
Ka (intercept), Estimate (% RSE) ([2]; NONMEM): 0.256 (9.41%); h^−1
Ka (slope), Estimate (% RSE) ([2]; NONMEM): 0.284 (9.12%);
Lag time, Estimate (% RSE) ([2]; NONMEM): 0.175 (4.65%); h
Typical V2/F, Estimate (% RSE) ([2]; NONMEM): 70.1 (5.29%); L
Typical Q/F, Estimate (% RSE) ([2]; NONMEM): 1.00 (5.17%); L/h
Typical V3/F, Estimate (% RSE) ([2]; NONMEM): 27.5 (11.7%); L
Average difference in migalastat exposure with subject weight ([2]; body weights between 50 and 170 kg): < 2 fold
Time within which the drug is considered fairly fully absorbed ([2]; oral, regardless of the absorption model chosen): 7 to 10 h
